Measurements: patent publication US20130071368A1, “PREPARATION, USE OF PREPARATION FOR TREATMENT, AND METHOD OF TREATMENT OF INTESTINAL INFECTION” (FAYREFIELD FOODS LIMITED, priority 2007, published 2013)

Test system: C. difficile infection
Assay: Anecdotal treatment of patients with C. difficile infection
Format: in vivo, human
Details: patient, second presentation
Description: A patient was suffering severe symptoms of C. difficile infection, in spite of narrow-spectrum antibiotic treatment, for a period of approximately three months. The treatment protocol was then modified to include, additionally, the oral administration of cranberry puree and GOS at least once daily.
A further patient, presenting for the second time with symptoms of c. difficile was treated initially with metronidazole and then, subsequently, with vancomycin. […] At the point of administration of a mixture of galacto-oligosaccharide and cranberry puree the patient was recording 16 episodes of open bowel in a 24 hour period, was suffering from severe dehydration and was causing significant concern that death might imminently result.

Compound | effect of antibiotic treatment on symptoms of c. difficile
CN[C@H](CC(C)C)C(=O)N[C@H]1C(=O)N[C@@H](CC(N)=O)C(=O)N[C@H]2C(=O)N[C@H]3C(=O)N[C@H](C(=O)N[C@H](C(=O)O)c4cc(O)cc(O)c4-c4cc3ccc4O)[C@H](O)c3ccc(c(Cl)c3)Oc3cc2cc(c3O[C@@H]2O[C@H](CO)[C@@H](O)[C@H](O)[C@H]2O[C@H]2C[C@](C)(N)[C@H](O)[C@H](C)O2)Oc2ccc(cc2Cl)[C@H]1O [vancomycin] | Neither treatment was having any effect
Cc1ncc([N+](=O)[O-])n1CCO [metronidazole] | Neither treatment was having any effect
